These results are taken from patent publication US11464770B2, “Anticancer pharmaceutical composition” (NATIONAL CANCER CENTER, priority 2016, dated 2022).

Like-named read-outs stand apart in the source and are kept apart here.

Series [1] concerns bladder cancer cell lines. The series can be described thus: Cell based assay, cell viability (CellTiter-Glo), bladder cancer cell lines. The note with it: 72 hours treatment, 0 to 2 μM, CellTiter-Glo. The gist of the method:
(§1)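 72-hour continuous compound exposure, 0 to 2 μM final, begun one day after seeding; endpoint is ATP-based luminescent viability.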
(In general: In ATP-based viability assays light output follows the ATP content of the culture.)

Series [2] relates to pancreatic cancer cell lines (e.g. MIA PaCa-2). Description: Cell based assay, cell viability (CellTiter-Glo), pancreatic cancer cell lines. The note with it: Homo sapiens. Put shortly: as §1
For another series, the system named is melanoma cell lines. The series can be described thus: Cell based assay, cell viability (CellTiter-Glo), melanoma cell lines. Particulars: Homo sapiens; LOX-IMVI cell line. Put shortly: as §1
Series [3] has as its system cervical carcinoma cell lines. The series can be described thus: Cell based assay, cell viability (CellTiter-Glo), cervical carcinoma cell lines. Particulars: Homo sapiens; HeLa cells.
The nature of series [4]: Cell based assay, cytotoxicity in RT4 papilloma cells (selectivity). More on the design: species or system human. The note with it: human; RT4 cells (benign), 72 hours.
The subject of series [5] is RT4: human urinary bladder transitional cell papilloma. The description is as above. The note with it: Homo sapiens, RT-4; RT4 cells.
The subject of series [6] is MBT-2: Mouse bladder transitional cell carcinoma. Description: Cell based assay, cytotoxicity in MBT-2 cells. Particulars: 72 hours. Here is the method:
(§2) Commercially available bladder cancer, prostate cancer, lung cancer, breast cancer, blood cancer, pancreatic cancer, colorectal cancer, brain cancer, neuroblastoma, melanoma, liver cancer, cervical carcinoma, ovarian cancer, renal cancer, and papilloma cell lines were each treated with trypsin-EDTA and cultured, followed by being seeded in each well of a 96 well plate. After 24 hours of treatment at constant temperature, the respective cells were treated with the candidate compound so that a final concentration became 0 to 2 μM. The treated cells were additionally cultured for 72 hours, and cell viability was measured by using an ATP detection method (CellTiter-Glo® Luminescent Cell Viability Assay, Promega).

In series [7] the test system is UM-UC-3: human urinary bladder transitional cell carcinoma. Description: Cell based assay, cytotoxicity in UM-UC-3 cells. Particulars: UMUC3, 72 hours. Here is the method: as §2
The test system of series [8] is human prostate cancer cell line (DU145). Description: Tumor growth inhibition in animal model using DU145. Format: in vivo. The note with it: intraperitoneally administered twice a week, DU145 animal model (FIG. 2).
The next series relates to zebrafish. The series can be described thus: Cardiotoxicity experiment using zebrafish (heart rate, lethality). Particulars: 5 uM, n = 10. It is filed as in vivo.
Setting [9] is: 5637 cells, read-out: IC50, bladder cancer cell line 5637.
Where [10] appears, read: Homo sapiens, T-24, T24 cells, read-out: IC50, bladder cancer cell line T24.
Where [11] appears, read: Homo sapiens, J82 cells, read-out: IC50, bladder cancer cell line J82.
[12] abbreviates: pancreatic cancer cell line AsPC-1, 72 hours, read-out: IC50, AsPC-1.
Setting [13] is: pancreatic cancer cell line BxPC-3, 72 hours, read-out: IC50, BxPC-3.
The mark [14] stands for this setting: pancreatic cancer cell line CFPAC-1, 72 hours, read-out: IC50, CFPAC-1.
Where [15] appears, read: pancreatic cancer cell line Capan-1, 72 hours, read-out: IC50, Capan-1.
[16] abbreviates: pancreatic cancer cell line Capan-2, 72 hours, read-out: IC50, Capan-2.
The mark [17] stands for this setting: pancreatic cancer cell line MIA PaCa-2, 72 hours, read-out: IC50, MIA PaCa-2.
[18] abbreviates: pancreatic cancer cell line PANC-1, 72 hours, read-out: IC50, PANC-1.

Take `CC(=O)c1c([S+]([O-])Cc2ccc(SC(F)(F)F)cc2)[nH]c2c(Br)ccc(Cl)c2c1=O` (stereo not drawn) [Compound 56, 3-acetyl-8-bromo-5-chloro-2-((4-((trifluoromethyl)thio)benzyl)sulfinyl)quinolin-4(1H)-one]: the IC50 (as a rule, the concentration needed to halve the response being measured) in series [1] (setting [9]) is > 2 µM; in series [1] (setting [10]), 0.98 µM; in [1] (setting [11]), 1.46 µM; in series [1] (Homo sapiens, KU-19-19 cells, read-out: IC50, bladder cancer cell line KU-19-19), 0.9 µM; in series [2] (setting [12]), > 2 µM; in series [2] (setting [13]) it was > 2 µM. For the same compound, the IC50 in series [2] (setting [14]) is > 10 µM; in series [2] (setting [15]), > 2 µM; in series [2] (setting [16]), > 2 µM; in [2] (setting [17]), 1.37 µM; in series [2] (setting [18]) it was > 2 µM; in the series with melanoma cell lines, 1.09 µM. The 50% inhibitory concentration (IC50) in [3] was > 2 µM; in [5], > 10 µM; in [6], 1.18 µM; in [7] it was 1.25 µM. Also, in series [4], the half-inhibitory concentration (IC50) at 72 h is > 10 µM. Besides, the “Effect of inhibiting tumor growth” value in [8] is “effect of inhibiting tumor growth”.

With `CC(=O)c1c([S+]([O-])Cc2ccc([N+](=O)[O-])cc2)[nH]c2c(Br)ccc(Cl)c2c1=O` (stereo not drawn) [Compound 33, 3-acetyl-8-bromo-5-chloro-2-((4-nitrobenzyl)sulfinyl)quinolin-4(1H)-one], the half-maximal inhibitory concentration (IC50) in series [1] (setting [9]) was > 2 µM; in series [1] (setting [10]), 1.03 µM; in [1] (setting [11]), > 2 µM; in series [2] (setting [12]), > 2 µM; in [2] (setting [13]) it was > 2 µM; in series [2] (setting [14]), > 10 µM. For the same compound, the IC50 in [2] (setting [15]) was > 2 µM; in series [2] (setting [16]) it was > 2 µM; in [2] (setting [17]), 1.04 µM; in series [2] (setting [18]), > 2 µM; in the series on melanoma cell lines, 1.13 µM; in series [3], > 10 µM. Also, the half-inhibitory concentration (IC50) in series [5] is > 10 µM. Also, the “Changes (%) in heart rate” value in the series on zebrafish (mean) was found to be 97.3%. In addition, in the series with zebrafish, the Lethality was 0/10.
